Experiments:
Type in all cases: binding
[1] = molecular target: T1, GRM3 (Homo sapiens, UniProt Q14832); experiment: NanoBRET screen HiBiT-GRM3 in HEK293; conditions: GRM3
T1 construct: purchased Promega (in-house HiBiT-GPCR construct library, NanoBRET)
Method: (§1) Each tracer candidate was screened across the entire library of HiBiT-GPCR constructs using NanoBRET as the detection modality. As depicted in Figure 4A, the specificity of interactions was evaluated through decrease in BRET due to competitive displacement of a bound tracer by excess parental compound. Each tracer was analyzed for binding to each HiBiT-GPCR fusion in the absence and in the presence of competing parental compound. Briefly, HEK293 cells were transfected with HiBiT-GPCR constructs diluted into promoterless DNA to reduce expression and maximize translocation to the cell surface. Each tracer candidate was then screened at concentrations of 1 μM and 0.1 μM across cells expressing these fusions. Cells were treated for 1.5 h with tracer either alone or in the presence of 20 μM competing parental compound (i.e., control). BRET was measured upon addition of purified LgBiT and subsequent complementation with HiBiT genetically fused to a GPCR. The specificity of interactions was assessed through a decrease in BRET signal due to competitive displacement of the bound tracer. To further gauge the robustness of these interactions, the fold response over the control (i.e., BRETtracer/BRETcontrol) was calculated. We chose a 1.5-fold response, which translates to ≥7-fold signal over noise as the minimal threshold required to score an interaction as positive. […]. Below we highlight the screening results obtained for our exemplary fluorescent tracers based on Clozapine, Amitriptyline and AZD1283.
(§2) HiBiT-GPCR DNA constructs were diluted in 10 mM Tris pH 8 to a final concentration of 0.01 μg/μL, arrayed in 96-well plates and stored at −20 °C. For transfection, HEK293 cells were suspended in Opti-MEM (without phenol red) supplemented with 2% fetal bovine serum (Seradigm) and 100 units/mL penicillin–streptomycin (Gibco) at a final concentration of 220,000 cells/mL and dispensed into white 96-well plates at 90 μL/well. Subsequent transfections and screens were carried using an Agilent Bravo Automated Liquid Handling Platform. First, the 96-well HiBiT DNA arrays were diluted 25-fold in Opti-MEM (without serum or phenol red) to a final concentration of 0.0004 μg/μL and 20 μL of the diluted DNAs were transferred into new 96-well plates. Next, promoterless carrier DNA (1 μg/μL) was diluted 25-fold (0.04 μg/μL) and then dispensed into the diluted arrays at 20 μL/well. Following brief mixing, Viafect transfection reagent (Promega) diluted 16-fold into Opti-MEM was dispensed into the plates at 40 μL/well. After mixing by pipetting, plates were incubated for 10 min on the pipetting station deck. The DNA-transfection reagent complexes were then added to plates containing cells. To facilitate the screen, 10 μL of DNA-transfection reagent complexes were added in duplicates to the top 4 and bottom 4 rows, resulting in two identical 48-well arrays per plate. Plates with transfected cells were incubated for 18–20 h at 37 °C/5% CO2. A screen of each tracer across the entire library using two different concentrations requires duplicate plates of transfected cells. Depending on the number of tracers being screened, transfections can be scaled up using the same ratios. The next day, for each tracer, four 20× screening solutions in tracer dilution buffer (Promega) were prepared: two duplicates at final concentration of 20 μM and two duplicates at a final concentration of 2 μM. A competing unmodified compound was added to one of each duplicate at a final concentration of 400 μM. The four resulting solutions were diluted 4-fold in Opti-MEM without serum or phenol red to generate 5× solutions (5 µM and 0.5 µM tracer +/− 100 μM competing compound). To screen the library, a BioTek MultiFlo FX liquid dispenser was used to dispense 22.5 µL of tracer solution to the top 4 rows and 22.5 µL tracer + competing compound solution to the 4 bottom rows. Plates were briefly mixed on an orbital shaker and incubated for 1.5 h at room temperature. […]

[2] = molecular target: T2, NPBWR2 (Homo sapiens, UniProt P48146); experiment: NanoBRET screen HiBiT-NPBWR2 in HEK293
T2 construct: purchased Promega (in-house HiBiT-GPCR construct library, NanoBRET)
Method: as §1, §2

[3] = molecular target: T3, DRD5 (Homo sapiens, UniProt P21918); experiment: NanoBRET screen HiBiT-DRD5 in HEK293
T3 construct: purchased Promega (in-house HiBiT-GPCR construct library, NanoBRET)
Method: as §1, §2

[4] = molecular target: T4, MLNR (Homo sapiens, UniProt O43193); experiment: NanoBRET screen HiBiT-MLNR in HEK293
T4 construct: purchased Promega (in-house HiBiT-GPCR construct library, NanoBRET)
Method: as §1, §2

[5] = molecular target: T5, NPFFR2 (Homo sapiens, UniProt Q9Y5X5); experiment: NanoBRET screen HiBiT-NPFFR2 in HEK293
T5 construct: purchased Promega (in-house HiBiT-GPCR construct library, NanoBRET)
Method: as §1, §2

[6] = molecular target: T6, CCR6 (Homo sapiens, UniProt P51684); experiment: NanoBRET screen HiBiT-CCR6 in HEK293
T6 construct: purchased Promega (in-house HiBiT-GPCR construct library, NanoBRET)
T6 sequence (P51684 1-374): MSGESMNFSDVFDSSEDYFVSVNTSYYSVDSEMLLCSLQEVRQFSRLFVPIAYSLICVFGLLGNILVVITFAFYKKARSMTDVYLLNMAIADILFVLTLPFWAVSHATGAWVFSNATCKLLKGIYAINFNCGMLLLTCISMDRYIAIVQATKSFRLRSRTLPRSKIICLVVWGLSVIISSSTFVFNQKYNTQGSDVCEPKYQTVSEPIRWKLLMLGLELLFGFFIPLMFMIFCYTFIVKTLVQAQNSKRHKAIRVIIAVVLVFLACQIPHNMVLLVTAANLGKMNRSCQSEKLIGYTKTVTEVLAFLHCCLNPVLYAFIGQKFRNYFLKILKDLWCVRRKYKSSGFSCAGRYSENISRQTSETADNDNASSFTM
Method: as §1, §2

[7] = tracer at 0.1μM, listed as amitriptyline-b-2-NB590
[8] = tracer at 1μM, listed as amitriptyline-b-2-NB590

T1 sequence (Q14832 23-879): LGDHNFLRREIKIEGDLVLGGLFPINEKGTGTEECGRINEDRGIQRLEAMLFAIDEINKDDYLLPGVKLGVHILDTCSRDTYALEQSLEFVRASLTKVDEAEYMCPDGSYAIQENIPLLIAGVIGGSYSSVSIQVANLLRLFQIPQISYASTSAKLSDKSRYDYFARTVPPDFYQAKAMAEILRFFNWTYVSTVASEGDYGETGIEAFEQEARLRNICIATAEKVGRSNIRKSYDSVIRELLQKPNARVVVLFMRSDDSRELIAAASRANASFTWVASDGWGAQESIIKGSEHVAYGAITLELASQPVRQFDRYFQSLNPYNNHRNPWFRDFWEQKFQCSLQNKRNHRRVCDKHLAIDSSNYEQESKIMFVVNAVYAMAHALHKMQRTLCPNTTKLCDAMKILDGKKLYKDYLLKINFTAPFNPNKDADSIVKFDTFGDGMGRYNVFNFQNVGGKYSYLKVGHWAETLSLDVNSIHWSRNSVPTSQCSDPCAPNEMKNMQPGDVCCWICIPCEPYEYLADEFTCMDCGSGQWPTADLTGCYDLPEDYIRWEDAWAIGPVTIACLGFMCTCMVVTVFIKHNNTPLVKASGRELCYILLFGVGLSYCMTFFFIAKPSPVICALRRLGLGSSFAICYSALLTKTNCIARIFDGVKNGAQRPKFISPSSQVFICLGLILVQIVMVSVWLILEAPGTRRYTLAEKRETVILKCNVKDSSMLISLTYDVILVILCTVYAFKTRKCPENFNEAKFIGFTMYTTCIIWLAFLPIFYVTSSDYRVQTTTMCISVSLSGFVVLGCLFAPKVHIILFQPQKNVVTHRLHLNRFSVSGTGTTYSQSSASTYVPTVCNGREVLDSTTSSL
T4 sequence (O43193 whole entry): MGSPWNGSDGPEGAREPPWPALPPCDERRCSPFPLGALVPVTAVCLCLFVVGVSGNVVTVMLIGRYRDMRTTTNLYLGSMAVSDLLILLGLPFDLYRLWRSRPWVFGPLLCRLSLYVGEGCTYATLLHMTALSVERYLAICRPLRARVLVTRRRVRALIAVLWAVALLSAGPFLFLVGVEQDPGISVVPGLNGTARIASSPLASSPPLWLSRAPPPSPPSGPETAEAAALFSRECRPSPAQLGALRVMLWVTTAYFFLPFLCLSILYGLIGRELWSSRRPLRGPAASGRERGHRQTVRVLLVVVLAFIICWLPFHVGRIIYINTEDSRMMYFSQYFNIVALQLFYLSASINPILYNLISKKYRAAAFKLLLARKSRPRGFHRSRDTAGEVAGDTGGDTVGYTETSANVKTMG
T2 sequence (P48146 whole entry): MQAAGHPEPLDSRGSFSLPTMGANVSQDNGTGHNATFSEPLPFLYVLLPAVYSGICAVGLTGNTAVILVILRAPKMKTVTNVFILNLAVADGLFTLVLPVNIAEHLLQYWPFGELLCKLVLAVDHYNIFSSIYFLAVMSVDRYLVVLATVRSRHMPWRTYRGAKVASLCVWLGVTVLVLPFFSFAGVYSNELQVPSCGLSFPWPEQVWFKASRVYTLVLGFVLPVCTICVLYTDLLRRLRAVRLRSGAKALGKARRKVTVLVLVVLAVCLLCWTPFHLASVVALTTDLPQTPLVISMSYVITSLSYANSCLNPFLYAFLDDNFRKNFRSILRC
T3 sequence (P21918 whole entry): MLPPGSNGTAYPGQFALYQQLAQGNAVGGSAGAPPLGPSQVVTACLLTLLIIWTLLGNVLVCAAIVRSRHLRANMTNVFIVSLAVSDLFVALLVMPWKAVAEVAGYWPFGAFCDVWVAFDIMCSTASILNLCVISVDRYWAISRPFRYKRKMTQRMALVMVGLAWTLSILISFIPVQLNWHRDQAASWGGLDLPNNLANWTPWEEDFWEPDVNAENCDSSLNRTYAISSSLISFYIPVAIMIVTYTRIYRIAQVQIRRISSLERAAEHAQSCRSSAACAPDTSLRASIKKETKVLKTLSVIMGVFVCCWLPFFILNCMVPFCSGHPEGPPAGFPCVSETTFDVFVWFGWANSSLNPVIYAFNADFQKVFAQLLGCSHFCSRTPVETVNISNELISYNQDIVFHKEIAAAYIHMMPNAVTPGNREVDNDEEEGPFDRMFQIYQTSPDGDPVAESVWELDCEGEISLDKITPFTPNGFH
T5 sequence (Q9Y5X5 whole entry): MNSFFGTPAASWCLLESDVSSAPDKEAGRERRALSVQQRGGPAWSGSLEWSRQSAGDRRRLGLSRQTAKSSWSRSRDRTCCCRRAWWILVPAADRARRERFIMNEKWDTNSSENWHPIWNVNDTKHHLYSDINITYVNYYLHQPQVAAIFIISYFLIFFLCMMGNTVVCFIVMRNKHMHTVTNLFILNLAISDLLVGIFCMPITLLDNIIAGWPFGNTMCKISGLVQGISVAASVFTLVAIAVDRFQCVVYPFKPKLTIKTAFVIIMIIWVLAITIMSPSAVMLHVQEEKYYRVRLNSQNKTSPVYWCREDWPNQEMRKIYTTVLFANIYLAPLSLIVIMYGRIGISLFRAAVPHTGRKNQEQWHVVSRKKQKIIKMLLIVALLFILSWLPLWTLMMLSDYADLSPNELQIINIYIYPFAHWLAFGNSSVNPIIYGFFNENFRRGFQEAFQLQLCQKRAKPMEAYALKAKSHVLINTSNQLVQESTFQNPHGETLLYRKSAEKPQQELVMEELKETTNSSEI

With `O=C(CCc1ccc2n1[B-](F)(F)[N+]1=C(c3ccc[nH]3)C=CC1=C2)NCc1ccc(C(=O)NCCOCCC(=O)N[C@@H]2CC[C@@]3(O)[C@H]4Cc5ccc(O)c6c5[C@@]3(CCN4CC3CC3)[C@H]2O6)cc1` [Naltrexone-3-NB590] the “NanoBRET Fold Response” value ([1]; tracer 0.1μM) was 1.15, the “NanoBRET Fold Response” value ([1]; tracer 1μM) was 0.81 and the “NanoBRET Fold Response” value ([2]; NPBWR2, tracer 0.1μM) was 1.05. For the same compound, the “NanoBRET Fold Response” value ([2]; NPBWR2, tracer 1μM) was 1.04, the “NanoBRET Fold Response” value ([3]; DRD5, tracer 0.1μM) was 1.25 and the “NanoBRET Fold Response” value ([3]; DRD5, tracer 1μM) was 1.07. The “NanoBRET Fold Response” value ([4]; MLNR, tracer 0.1μM) was 1.44, the “NanoBRET Fold Response” value ([4]; MLNR, tracer 1μM) was 0.69 and the “NanoBRET Fold Response” value ([5]; NPFFR2, tracer 0.1μM) was 1.01. The “NanoBRET Fold Response” value ([5]; NPFFR2, tracer 1μM) was 0.95, the “NanoBRET Fold Response” value ([6]; CCR6, tracer 0.1μM) was 0.94 and the “NanoBRET Fold Response” value ([6]; CCR6, tracer 1μM) was 1.24.
With `CN1CCN(C2=Nc3cc(Cl)ccc3N(CC(=O)NCCOCCOCCOCCOCCNC(=O)CCc3ccc4n3[B-](F)(F)[N+]3=C(c5ccc[nH]5)C=CC3=C4)c3ccccc32)CC1` [Clozapine-c-2-NB590] the “NanoBRET Fold Response” value ([1]; 0.1μM tracer) was 0.93, the “NanoBRET Fold Response” value ([1]; 1μM tracer) was 1.07 and the “NanoBRET Fold Response” value ([2]; NPBWR2, 0.1μM tracer) was 0.97. For the same compound, the “NanoBRET Fold Response” value ([2]; NPBWR2, 1μM tracer) was 0.98, the “NanoBRET Fold Response” value ([3]; DRD5, 0.1μM tracer) was 0.98 and the “NanoBRET Fold Response” value ([3]; DRD5, 1μM tracer) was 1.16. For the same compound, the “NanoBRET Fold Response” value ([4]; MLNR, 0.1μM tracer) was 0.66, the “NanoBRET Fold Response” value ([4]; MLNR, 1μM tracer) was 1.14 and the “NanoBRET Fold Response” value ([5]; NPFFR2, 0.1μM tracer) was 0.98. For the same compound, the “NanoBRET Fold Response” value ([5]; NPFFR2, 1μM tracer) was 0.99, the “NanoBRET Fold Response” value ([6]; CCR6, 0.1μM tracer) was 0.99 and the “NanoBRET Fold Response” value ([6]; CCR6, 1μM tracer) was 0.91.
`Cc1nc2n(c(=O)c1CCN1CCC(c3noc4cc(F)ccc34)CC1)CCCC2OC(=O)NCCOCCOCCOCCOCCNC(=O)CCc1ccc2n1[B-](F)(F)[N+]1=C(c3ccc[nH]3)C=CC1=C2` (centres unmarked) [Risperidone-2-NB590] was tested, and the “NanoBRET Fold Response” value ([1]; tracer 0.1μM) was 1.07, the “NanoBRET Fold Response” value ([1]; tracer 1μM) was 1.07 and the “NanoBRET Fold Response” value ([2]; NPBWR2, tracer 0.1μM) was 1.05. For the same compound, the “NanoBRET Fold Response” value ([2]; NPBWR2, tracer 1μM) was 1.00, the “NanoBRET Fold Response” value ([3]; DRD5, tracer 0.1μM) was 1.92 and the “NanoBRET Fold Response” value ([3]; DRD5, tracer 1μM) was 2.44. The “NanoBRET Fold Response” value ([4]; MLNR, tracer 0.1μM) was 0.93, the “NanoBRET Fold Response” value ([4]; MLNR, tracer 1μM) was 0.97 and the “NanoBRET Fold Response” value ([5]; NPFFR2, tracer 0.1μM) was 1.02. For the same compound, the “NanoBRET Fold Response” value ([5]; NPFFR2, tracer 1μM) was 0.98, the “NanoBRET Fold Response” value ([6]; CCR6, tracer 0.1μM) was 1.07 and the “NanoBRET Fold Response” value ([6]; CCR6, tracer 1μM) was 0.91.
With `CN(C)CCC=C1c2ccccc2CCc2ccc(C(=O)NCCNC(=O)CCOCCOCCOCCOCCNC(=O)CCc3ccc4n3[B-](F)(F)[N+]3=C(c5ccc[nH]5)C=CC3=C4)cc21` [Amitriptyline-b-2-NB590] the “NanoBRET Fold Response” value ([1]; tracer 0.1μM) was 1.00, the “NanoBRET Fold Response” value ([1]; tracer 1μM) was 1.03 and the “NanoBRET Fold Response” value ([2]; tracer at 0.1μM) was 1.01. The “NanoBRET Fold Response” value ([2]; tracer at 1μM) was 0.95, the “NanoBRET Fold Response” value [3, 7] was 1.08 and the “NanoBRET Fold Response” value [3, 8] was 1.42. The “NanoBRET Fold Response” value [4, 7] was 1.19, the “NanoBRET Fold Response” value ([5]; tracer at 0.1μM) was 1.00 and the “NanoBRET Fold Response” value ([5]; tracer at 1μM) was 1.03. For the same compound, the “NanoBRET Fold Response” value [6, 7] was 1.01 and the “NanoBRET Fold Response” value [6, 8] was 1.01.
In the case of `CN(C)CCC=C1c2ccccc2CCc2ccc(C(=O)NCCNC(=O)CCOCCOCCOCCOCCNC(=O)CCc3ccc4n3[B-](F)(F)[N+]3=C(c5ccc[nH]5)C=CC3=C4)cc21` [Amitriptyline-a-2-NB590], the “NanoBRET Fold Response” value ([3]; tracer at 0.1μM) is reported as 1.11, the “NanoBRET Fold Response” value ([3]; tracer at 1μM) is reported as 1.12 and the “NanoBRET Fold Response” value ([4]; tracer at 0.1μM) is reported as 1.05. For the same compound, the “NanoBRET Fold Response” value ([4]; tracer at 1μM) was 1.05, the “NanoBRET Fold Response” value ([6]; tracer at 0.1μM) was 0.96 and the “NanoBRET Fold Response” value ([6]; tracer at 1μM) was 0.94.
